Results reported in PubChem BioAssay (NCI).
Where “and” joins values, the source holds several entries; their conditions need not be identical. Identical values can stand only once.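 Values below derive from 48-hour exposures of cells grown in 96-well plates, with endpoints linearly interpolated between the two concentrations bracketing the appropriate inhibition level. Here, GI50 denotes the concentration required for 50% inhibition of growth. TGI is the concentration that stops growth completely.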 Where a SMILES comes first, the peptide text is derived from it.

Assays:
Assay in all cases: NCI anticancer screen, dose series, 48 h
TK-10 renal = tested on: TK-10 renal
DU-145 prostate = tested on: DU-145 prostate
MALME-3M melanoma = tested on: MALME-3M melanoma
A549 NSCLC = tested on: A549 NSCLC
CAKI-1 renal = tested on: CAKI-1 renal
RXF 393 renal = tested on: RXF 393 renal
ACHN renal = tested on: ACHN renal
COLO 205 colon = tested on: COLO 205 colon
UACC-62 melanoma = tested on: UACC-62 melanoma
OVCAR-4 ovarian = tested on: OVCAR-4 ovarian

Compound	TGI (TK-10 renal) [µM]	TGI (DU-145 prostate) [µM]	TGI (MALME-3M melanoma)	TGI (A549 NSCLC)	TGI (CAKI-1 renal)	TGI (RXF 393 renal)	TGI (ACHN renal) [µM]	TGI (COLO 205 colon)	TGI (UACC-62 melanoma)	TGI (OVCAR-4 ovarian)	GI50 (A549 NSCLC) [µM]	GI50 (MALME-3M melanoma) [µM]	GI50 (CAKI-1 renal) [µM]	GI50 (RXF 393 renal) [µM]	GI50 (COLO 205 colon) [µM]	GI50 (UACC-62 melanoma) [µM]	GI50 (TK-10 renal) [µM]	GI50 (DU-145 prostate) [µM]	GI50 (ACHN renal) [µM]	GI50 (OVCAR-4 ovarian) [µM]
C=C1C(=O)O[C@@H]2/C=C(\C)CC/C=C(\C)CC[C@@]12O	3.42	4.93	3.05 µM	27.1 µM	2.79 µM	0.897 µM	3.36	4.3 µM	23.6 µM	4.86 µM										
COC(=O)C1=C(C)N2CCSC2(C)C(C(=O)OC)C1c1cccc(Cl)c1 (configuration not stated)	> 100			65.3 µM	70 µM	53.5 µM	> 100	35.4 µM	32.6 µM	> 100 µM										
CC[C@@]1(O)C(=O)OCc2c1cc1n(c2=O)Cc2cc3ccccc3nc2-1	51.2	0.0605	2.11 µM	2.51 µM	0.0322 µM	0.126 µM	0.191	5.18 µM	0.0736 µM	2.21 µM	0.0157									
CCN1c2cc(Br)cc3[nH]c(=O)n(c23)CCC1C (configuration not stated)	49.2	36	56.1 µM	35.1 µM	36 µM	27.6 µM	63.5	31.3 µM	24.6 µM	65.2 µM										
Clc1cc(Cl)c2cc3cccc[n+]3cc2c1Cl	40.2	34	53.7 µM	34.1 µM	21 µM		31.7	28.1 µM	32.7 µM	30.2 µM										
CNC1Cc2c[nH]c3cccc(c23)C12C=C(C)C(=O)O2 (configuration not stated)	> 100	> 100	> 100 µM	> 100 µM	> 100 µM	> 100 µM	> 100	> 100 µM	> 100 µM	> 100 µM										
Nc1ccc(O)c2c1C(=O)c1c(N)ccc(O)c1C2=O	> 100		> 100 µM	> 100 µM	> 100 µM	> 100 µM	> 100	> 100 µM	> 100 µM	> 100 µM										
Nc1[nH]c(=S)nc2nc3c(c(-c4ccccc4)c12)CCCC3	> 100	> 100	> 100 µM	> 100 µM	> 100 µM		> 100	> 100 µM	> 100 µM	> 100 µM										
CC(C)(C)OC(=O)N1C(OP(=O)(Oc2ccccc2)Oc2ccccc2)=CSc2ccccc21	> 100	> 100	88.1 µM	> 100 µM	92.3 µM	> 100 µM	> 100	49.6 µM	> 100 µM	> 100 µM										
CC(C)(C)c1ccc2c(c1)C#Cc1cc(C(C)(C)C)ccc1OCCCO2	> 100	> 100	> 100 µM	> 100 µM	> 100 µM	> 100 µM	> 100	> 100 µM	> 100 µM	> 100 µM										
COc1cc(/C=C2\N=C(c3ccccc3)N(c3ccc(C(=O)c4ccccc4)cc3N3C(=O)/C(=C/c4ccc(O)c(OC)c4)N=C3c3ccccc3)C2=O)ccc1O	51.9	48.6		62.7 µM	71 µM		57.2	32.3 µM	30.8 µM	84.4 µM										
NC(CCOCCP(=O)(O)CCC1C=CC=CC1)C(=O)O (configuration not stated)	> 100	> 100		> 100 µM	> 100 µM	> 100 µM	> 100	> 100 µM	> 100 µM	> 100 µM										
CCN(CC)CC[n+]1ccc2c(C)c3[nH]c4ccc(O)cc4c3c(C)c2c1		14.2	19.3 µM and 22.3 µM	30.6 µM and 43.6 µM	49.6 µM and 16.3 µM	56.5 µM and 57.2 µM	16.5	17.4 µM and 31 µM	23.1 µM and 48.9 µM	23.4 µM and 30.4 µM	1.5	3.91	3.41	13.9	2.6	5.41				
OCC(O)CNc1ncnc2ccccc12 (configuration not stated)	> 100	> 100	> 100 µM	> 100 µM	> 100 µM	> 100 µM	> 100	> 100 µM	> 100 µM	> 100 µM										
CCOC(=O)CCC(C(=O)OCC)n1nc2ccc(Nc3c(C)[n+]([O-])c4cc(F)c(OCC)cc4[n+]3[O-])cc2n1 (configuration not stated)	> 100	> 100	> 100 µM	> 100 µM	> 100 µM	32.5 µM	> 100	> 100 µM	> 100 µM	> 100 µM										
COc1cc(/C=N/c2nc3cc4sc(/N=C/c5cc(OC)c(OC)c(OC)c5)nc4cc3s2)cc(OC)c1OC	> 100	> 100	> 100 µM	> 100 µM	> 100 µM	> 100 µM	> 100	> 100 µM	> 100 µM	> 100 µM										

Compound	TGI (TK-10 renal) [µM]	TGI (DU-145 prostate) [µM]	TGI (MALME-3M melanoma)	TGI (A549 NSCLC)	TGI (CAKI-1 renal)	TGI (RXF 393 renal)	TGI (ACHN renal) [µM]	TGI (COLO 205 colon)	TGI (UACC-62 melanoma)	TGI (OVCAR-4 ovarian)	GI50 (A549 NSCLC) [µM]	GI50 (MALME-3M melanoma) [µM]	GI50 (CAKI-1 renal) [µM]	GI50 (RXF 393 renal) [µM]	GI50 (COLO 205 colon) [µM]	GI50 (UACC-62 melanoma) [µM]	GI50 (TK-10 renal) [µM]	GI50 (DU-145 prostate) [µM]	GI50 (ACHN renal) [µM]	GI50 (OVCAR-4 ovarian) [µM]
CCc1n[nH]c(=O)n1/N=C(\C)c1ccc([N+](=O)[O-])cc1	> 100	> 100		> 100 µM	> 100 µM	> 100 µM		> 100 µM	> 100 µM	> 100 µM										
O=C(NC(Cc1ccc(Br)cc1)C(=O)O)c1ccc(I)cc1 (configuration not stated)			> 100 µM	> 100 µM	> 100 µM	> 100 µM		> 100 µM	> 100 µM	> 100 µM										
CCCCCCCCCCCCCC1=C(O)C(=O)C(CC2=C(O)C(=O)C(CCCCCCCCCCCCC)=C(O)C2=O)=C(O)C1=O	> 100	> 100	> 100 µM	> 100 µM	> 100 µM	32.2 µM	> 100	> 100 µM	> 100 µM											
O=C1c2cccnc2C(=O)c2c1c(C(=O)OCCN1CCCCC1)c1ccccn21	0.43	0.714	0.424 µM		1.53 µM	0.235 µM	0.0534	0.169 µM	0.069 µM	2.3 µM		0.0847	0.0269	0.0615	0.0481	0.0121	0.0978	0.0189	0.0129	0.655
Cc1cc2c(c(O)c1-c1c(C)cc(O)c3c1C(=O)C=CC3=O)C(=O)C=CC2=O	3.12	4.73		52.4 µM	1.48 µM	2.5 µM	1.44	0.656 µM	4.98 µM	10.3 µM										
O=C(Oc1c(Cl)cc(C2(c3cc(Cl)c(OC(=O)c4ccccc4)c(Cl)c3)CCCCC2)cc1Cl)c1ccccc1	30.4	36.7		37.1 µM	18.5 µM	25.9 µM	17.6	19.6 µM	22.5 µM	32.3 µM										
CC1C(=O)CC(c2cccs2)N(N=O)C1c1cccs1 (configuration not stated)			> 100 µM	> 100 µM	> 100 µM	81.1 µM		> 100 µM	> 100 µM	> 100 µM										
CC1(CO)COS(=O)OC1 (configuration not stated)	> 100	> 100		> 100 µM		> 100 µM	> 100	> 100 µM		> 100 µM										
OC[C@H]1NC[C@@H](O)[C@@H](O)[C@H]1O	> 100		> 100 µM		> 100 µM	> 100 µM		> 100 µM	> 100 µM	> 100 µM										
O=C(CSCC(=O)N/N=C/c1ccccc1)N/N=C\c1ccccc1	> 100	> 100	> 100 µM	> 100 µM	> 100 µM	> 100 µM	> 100	> 100 µM	> 100 µM	> 100 µM										
S=c1c2[nH]cnc2ncn1CCSC1=NC=NC2=NC=NC21 (configuration not stated)	> 100	> 100	> 100 µM	> 100 µM	> 100 µM	> 100 µM	> 100	> 100 µM	> 100 µM	> 100 µM										
Cc1[nH]c(=O)[nH]c(=O)c1/C=C/C(=O)NC(CO)CS(=O)CS(C)=O (configuration not stated)			57.9 µM	332 µM	13.3 µM	125 µM		132 µM	56.3 µM	14.9 µM										
COc1ccc(-c2nc3c(nc2-c2ccc(OC)cc2)C(N)=NS(=O)(=O)N3)cc1	> 100		> 100 µM	> 100 µM	> 100 µM	> 100 µM	> 100	> 100 µM	> 100 µM											
CSc1nc(CO)c(CO)n1C				> 100 µM	> 100 µM	> 100 µM		> 100 µM	> 100 µM	> 100 µM										
CN(Cc1cn(O)c2nc(=N)nc(N)c-2n1)c1ccc(C(=O)NC23CC4CC(CC(C4)C2)C3)cc1	> 100	> 100	> 100 µM		> 100 µM	94.9 µM	> 100	> 100 µM	> 100 µM											
NC(=O)C1CCCN1C(=O)C(N)Cc1ccccc1 (stereo not drawn) (H-Phe-Pro-NH2; configuration not given here)	> 100	> 100	> 100 µM	> 100 µM	> 100 µM		> 100	> 100 µM	> 100 µM	> 100 µM										
